The record followed here is ChEMBL document CHEMBL1697731, “Cheminformatics analysis of assertions mined from literature that describe drug-induced liver injury in different species” (Chem Res Toxicol, 2010).

Data set [1] has as its system Hepatotoxicity. In words: Literature-mined compound from Fourches et al multi-species drug-induced liver injury (DILI) dataset, effect in non-rodents.
The test system of data set [2] is Hepatotoxicity. In words: Literature-mined compound from Fourches et al multi-species drug-induced liver injury (DILI) dataset, effect in rodents. As to conditions: rodentia.
Data set [3] deals with Hepatotoxicity. In words: Literature-mined compound from Fourches et al multi-species drug-induced liver injury (DILI) dataset, effect in humans. As to conditions: human.

SMILES strings stand for the structures.

As to `CN1C[C@H](C(=O)N[C@]2(C)O[C@@]3(O)[C@@H]4CCCN4C(=O)[C@H](Cc4ccccc4)N3C2=O)C[C@@H]2c3cccc4[nH]cc(c34)C[C@H]21` [DIHYDROERGOTAMINE], the results for the Hepatotoxicity result in data set [1], in data set [2] and in data set [3] were “no drug-induced liver injury reported”, “drug-induced liver injury reported” and “drug-induced liver injury reported”, respectively.

As to `COc1ccc([C@@H]2Sc3ccccc3N(CCN(C)C)C(=O)[C@@H]2OC(C)=O)cc1` [DILTIAZEM], the Hepatotoxicity entry in data set [1], in data set [2] and in data set [3] was “drug-induced liver injury reported” in each case.

Turning to `C[S+](C)[O-]` [DIMETHYL SULFOXIDE], the Hepatotoxicity entry in data set [1], in data set [2] and in data set [3] was “drug-induced liver injury reported” each time.

With `CCCCC[C@H](O)/C=C/[C@H]1[C@H](O)CC(=O)[C@@H]1C/C=C\CCCC(=O)O` [DINOPROSTONE], the values for the Hepatotoxicity result in data set [1], in data set [2] and in data set [3] were “no drug-induced liver injury reported”, “drug-induced liver injury reported” and “drug-induced liver injury reported”, respectively.

Turning to `CCCCC[C@H](O)/C=C/[C@@H]1[C@@H](C/C=C\CCCC(=O)O)[C@@H](O)C[C@H]1O` [DINOPROST], the Hepatotoxicity entry in data set [1], in data set [2] and in data set [3] was “drug-induced liver injury reported” in each case.

Turning to `COc1ccc(-c2cc(=O)c3c(O)cc(O[C@@H]4O[C@H](CO[C@@H]5O[C@@H](C)[C@H](O)[C@@H](O)[C@H]5O)[C@@H](O)[C@H](O)[C@H]4O)cc3o2)cc1O` [DIOSMIN], the Hepatotoxicity result is recorded as “no drug-induced liver injury reported” in data set [1], “drug-induced liver injury reported” in data set [2] and “no drug-induced liver injury reported” in data set [3].

Consider `CN(C)CCOC(c1ccccc1)c1ccccc1` [DIPHENHYDRAMINE], for which the Hepatotoxicity result is given as “no drug-induced liver injury reported” in data set [1] (Liver), “drug-induced liver injury reported” in data set [2] (Liver) and “no drug-induced liver injury reported” in data set [3] (Liver).

`Cc1c(N(C)CS(=O)(=O)[O-])c(=O)n(-c2ccccc2)n1C.[Na+]` [DIPYRONE SODIUM]: the values for the Hepatotoxicity result in data set [1], in data set [2] and in data set [3] were “no drug-induced liver injury reported”, “drug-induced liver injury reported” and “drug-induced liver injury reported”, respectively.

For `C=C/C=C\[C@H](C)[C@H](OC(N)=O)[C@@H](C)[C@H](O)[C@@H](C)C/C(C)=C\[C@H](C)[C@@H](O)[C@@H](C)/C=C\[C@@H](O)C[C@@H]1OC(=O)[C@H](C)[C@@H](O)[C@H]1C` [DISERMOLIDE], the figures for the Hepatotoxicity result in data set [1], in data set [2] and in data set [3] were “no drug-induced liver injury reported”, “no drug-induced liver injury reported” and “drug-induced liver injury reported”, respectively.

On to `CC(C)N(CCC(C(N)=O)(c1ccccc1)c1ccccn1)C(C)C` (stereo not drawn) [DISOPYRAMIDE], for which the Hepatotoxicity entry is listed as “no drug-induced liver injury reported” in data set [1], “no drug-induced liver injury reported” in data set [2] and “drug-induced liver injury reported” in data set [3].

With `CCN(CC)C(=S)[S][Na]` [DITIOCARB SODIUM], the values for the Hepatotoxicity entry in data set [1], in data set [2] and in data set [3] were “no drug-induced liver injury reported”, “drug-induced liver injury reported” and “no drug-induced liver injury reported”, respectively.

In the case of `CC(CCc1ccc(O)cc1)NCCc1ccc(O)c(O)c1` (stereo not drawn) [DOBUTAMINE], the Hepatotoxicity result in data set [1] is on record as “drug-induced liver injury reported”; in data set [2] it was “no drug-induced liver injury reported”; in data set [3], “drug-induced liver injury reported”.

Regarding `CC(=O)O[C@@]12CO[C@@H]1C[C@H](O)[C@@]1(C)C(=O)[C@H](O)C3=C(C)[C@@H](OC(=O)[C@H](O)[C@@H](NC(=O)OC(C)(C)C)c4ccccc4)C[C@@](O)([C@@H](OC(=O)c4ccccc4)[C@H]21)C3(C)C.O.O.O` [DOCETAXEL], the Hepatotoxicity result in data set [1] is recorded as “no drug-induced liver injury reported”; in data set [2] it was “drug-induced liver injury reported”; in data set [3], “drug-induced liver injury reported”.

For the compound `CC/C=C\C/C=C\C/C=C\C/C=C\C/C=C\C/C=C\CCC(=O)O` [DOCONEXENT], the Hepatotoxicity entry in data set [1] is “no drug-induced liver injury reported”; in data set [2], “drug-induced liver injury reported”; in data set [3] it was “drug-induced liver injury reported”.

For the compound `NCCc1ccc(O)c(O)c1` [DOPAMINE], the Hepatotoxicity result in data set [1] (Liver), in data set [2] (Liver) and in data set [3] (Liver) was “drug-induced liver injury reported” each time.

`CN(C)CC/C=C1\c2ccccc2CSc2ccccc21` [DOTHIEPIN]: the Hepatotoxicity result was “no drug-induced liver injury reported” in data set [1], “no drug-induced liver injury reported” in data set [2] and “drug-induced liver injury reported” in data set [3].

With `CN(C)CCC=C1c2ccccc2COc2ccccc21` [DOXEPIN], the Hepatotoxicity result in data set [1] is on record as “no drug-induced liver injury reported”; in data set [2], “no drug-induced liver injury reported”; in data set [3] it was “drug-induced liver injury reported”.

Regarding `C[C@H]1O[C@@H](n2cc(F)c(=O)[nH]c2=O)[C@H](O)[C@@H]1O` [DOXIFLURIDINE], the Hepatotoxicity result in data set [1] is “no drug-induced liver injury reported”; in data set [2], “drug-induced liver injury reported”; in data set [3], “drug-induced liver injury reported”.

In the case of `COc1cccc2c1C(=O)c1c(O)c3c(c(O)c1C2=O)C[C@@](O)(C(=O)CO)C[C@@H]3O[C@H]1C[C@H](N)[C@H](O)[C@H](C)O1.Cl` [DOXORUBICIN HYDROCHLORIDE], the Hepatotoxicity result is “no drug-induced liver injury reported” in data set [1], “no drug-induced liver injury reported” in data set [2] and “drug-induced liver injury reported” in data set [3].

`COc1cccc2c1C(=O)c1c(O)c3c(c(O)c1C2=O)C[C@@](O)(C(=O)CO)C[C@@H]3O[C@H]1C[C@H](N)[C@H](O)[C@H](C)O1` [DOXORUBICIN]: the Hepatotoxicity result in data set [1], in data set [2] and in data set [3] was “drug-induced liver injury reported” each time.

Take `C[C@H]1c2cccc(O)c2C(=O)C2=C(O)[C@]3(O)C(=O)C(C(N)=O)=C(O)[C@@H](N(C)C)[C@@H]3[C@@H](O)[C@@H]21.O` [DOXYCYCLINE]: the Hepatotoxicity result in data set [1], in data set [2] and in data set [3] was “drug-induced liver injury reported” throughout.

Regarding `CC/C(=C(/c1ccc(OCCN(C)C)cc1)c1cccc(O)c1)c1ccccc1` [DROLOXIFENE], the Hepatotoxicity result in data set [1] is reported as “no drug-induced liver injury reported”; in data set [2], “drug-induced liver injury reported”; in data set [3], “no drug-induced liver injury reported”.

For `CCCCCc1cc(O)c2c(c1)OC(C)(C)[C@@H]1CCC(C)=C[C@@H]21` [DRONABINOL], the Hepatotoxicity result in data set [1] is on record as “no drug-induced liver injury reported”; in data set [2] it was “drug-induced liver injury reported”; in data set [3] it was “drug-induced liver injury reported”.

As for `CNCC[C@H](Oc1cccc2ccccc12)c1cccs1` [DULOXETINE], the Hepatotoxicity result is reported as “no drug-induced liver injury reported” in data set [1] (Liver), “no drug-induced liver injury reported” in data set [2] (Liver) and “drug-induced liver injury reported” in data set [3] (Liver).

As to `CC(=O)[C@H]1CC[C@H]2[C@@H]3C=CC4=CC(=O)CC[C@@]4(C)[C@@H]3CC[C@]12C` [DYDROGESTERONE], the Hepatotoxicity entry is “no drug-induced liver injury reported” in data set [1], “drug-induced liver injury reported” in data set [2] and “drug-induced liver injury reported” in data set [3].

As for `Clc1ccc(COC(Cn2ccnc2)c2ccc(Cl)cc2Cl)cc1` (stereo not drawn) [ECONAZOLE], the Hepatotoxicity result in data set [1] is “no drug-induced liver injury reported”; in data set [2], “drug-induced liver injury reported”; in data set [3] it was “no drug-induced liver injury reported”.

In the case of `O=C1Nc2ccc(Cl)cc2[C@@](C#CC2CC2)(C(F)(F)F)O1` [EFAVIRENZ], the values for the Hepatotoxicity result in data set [1], in data set [2] and in data set [3] were “no drug-induced liver injury reported”, “drug-induced liver injury reported” and “drug-induced liver injury reported”, respectively.

On to `NCCCC(N)(C(=O)O)C(F)F` (stereo not drawn) [EFLORNITHINE], for which the Hepatotoxicity entry in data set [1] is recorded as “no drug-induced liver injury reported”; in data set [2], “drug-induced liver injury reported”; in data set [3] it was “no drug-induced liver injury reported”.

`CCCCCCCCCCCCS[C@H](C(=O)Nc1cc(C)c(O)c(C)c1C)c1ccccc1` [EFLUCIMIBE]: the Hepatotoxicity result is listed as “drug-induced liver injury reported” in data set [1], “no drug-induced liver injury reported” in data set [2] and “no drug-induced liver injury reported” in data set [3].

For the compound `C[C@H](N[C@@H](CCc1ccccc1)C(=O)O)C(=O)N1CCC[C@H]1C(=O)O` [ENALAPRILAT ANHYDROUS], the Hepatotoxicity result in data set [1] was “no drug-induced liver injury reported”; in data set [2], “no drug-induced liver injury reported”; in data set [3] it was “drug-induced liver injury reported”.

For the compound `COc1ccc(C(=O)Nc2ccccc2CCC2CCCCN2C)cc1` (stereo not drawn) [ENCAINIDE], the results for the Hepatotoxicity result in data set [1], in data set [2] and in data set [3] were “no drug-induced liver injury reported”, “no drug-induced liver injury reported” and “drug-induced liver injury reported”, respectively.
